# In patent US8278090B1, “Heterotrophic cultivation of hydrocarbon-producing microalgae” (Solazyme, Inc., priority 2008, dated 2012):
# Several values for one entry are separate records, joined by “and”; a condition that tells them apart may be missing. Equal values may be shown once.
# Key:
# Assay type in all cases: cell-based
# [1] = test system: Botryococcus braunii (strain UTEX 572); experiment: Media component screening in heterotrophic culture; conditions: UTEX 572, 0.2% component + 3% glucose, 6-well plates, dark, room temperature, 16 days
# Protocol: Media components incorporated in soil bacteria media were tested in heterotrophic culture of Botryococcus braunii (strain UTEX 572). For each component tested, 5 ml of B11 media (as described in Example 2 above) supplemented with 3% glucose (Fisher) were prepared in 6-well plates. Additionally, the media was supplemented with 0.2% of one of the following soil bacteria media components: dextrin (MP Biomedicals), malt extract (MP Biomedicals), traders yeast (Pharmamedia), corn meal, corn steep powder (Marcor), whole dead yeast (Engevita), casein type M (Marcor), casein type B (Marcor), tomato paste, molasses, soy hydrolysate (MP Biomedicals), soy flour (Arrowhead Mills), corn starch (Sigma), and maltose (Fisher). Wells were inoculated and cultures were grown at room temperature in the dark for 16 days. […] All media were filter sterilized.
# The cells from each condition were transferred into 150 mL T150 flasks containing 50 mL B11 media with 3% glucose and 0.2% of their respective supplemental component. Cultures were grown in the dark for one week at 28° C. Cells were pelleted and fresh media (100 mL) were added to the cultures. The cultures were allowed to grow for another two weeks in the dark at 28° C. and then were collected and dry cell weights were measured. For most conditions, the addition of a 0.2% supplemental component increased cell growth as compared to glucose control. […]
# [2] = test system: Botryococcus braunii N-836; experiment: Different fixed carbon sources on heterotrophic growth, visual score; parameters: key to heterotrophic growth score, 0.1% / heterotrophic growth score, 0.5% / heterotrophic growth score, 1%: Growth was scored with +'s by visual examination of the cultures; ++: Growth was scored with +'s by visual examination of the cultures; +++: Growth was scored with +'s by visual examination of the cultures; ++++: Growth was scored with +'s by visual examination of the cultures; +++++: Growth was scored with +'s by visual examination of the cultures
# Protocol: (§1) All carbon sources were tested at three different concentrations; 0.1%, 0.5% and 1%. Cultures were grown in 24 well plates for 4 weeks in the dark in 1 ml BG11 plus fixed carbon. Control cultures were grown in BG-11 media under phototrophic conditions without a fixed carbon source. Growth was scored with +'s by visual examination of the cultures (see Table 7). UTEX 572 grew best in glucose, however there was also growth on mannose, galactose and fructose. UTEX 2441 preferred mannose in the dark but there was some growth in galactose, fructose and glycerol.
# [3] = test system: Botryococcus braunii UTEX 572; experiment: as above; parameters: key to heterotrophic growth score, 0.1% / heterotrophic growth score, 0.5% / heterotrophic growth score, 1%: Growth was scored with +'s by visual examination of the cultures; ++: Growth was scored with +'s by visual examination of the cultures; +++: Growth was scored with +'s by visual examination of the cultures; ++++: Growth was scored with +'s by visual examination of the cultures; +++++: Growth was scored with +'s by visual examination of the cultures
# Protocol: as §1
# [4] = test system: Botryococcus braunii UTEX 2441; experiment: as above; parameters: key to heterotrophic growth score, 0.1% / heterotrophic growth score, 0.5% / heterotrophic growth score, 1%: Growth was scored with +'s by visual examination of the cultures; ++: Growth was scored with +'s by visual examination of the cultures; +++: Growth was scored with +'s by visual examination of the cultures; ++++: Growth was scored with +'s by visual examination of the cultures; +++++: Growth was scored with +'s by visual examination of the cultures; conditions: 4 weeks
# Protocol: as §1
# [5] = test system: Botryococcus braunii UTEX 572; experiment: Heterotrophic growth with glucose, 24 well plate, dark or light; conditions: for DCW g/L / DCW mg/ml.: 4 weeks
# Protocol: (§2) Modified BG-11 (17.65 mM NaNO3, 0.23 mM K2PO4, 0.3 mM MgSO4.7H2O, 0.25 mM CaCl2.2H2O, 0.189 mM Na2CO3, 0.03 mM citric acid monohydrate, 0.023 mM ferric ammonium citrate, 0.046 mM H3BO3, 9.15 μM MnCl2.4H2O, 0.77 μM ZnSO4.7H2O, 0.32 μM CuSO4.5H2O, 0.21 μM CoCl2.6H2O, 1.62 μM NaMoO4.2H2O, 2.69 μM Na2EDTA, 9 mg/l Tricine, 1.99 μM Thiamine-HCl, 0.006 μM Cyanocobalamine, 0.044 μM Calcium Pantothenate, 0.29 μM p-aminobenzoic acid, soil water).
# [6] = test system: Botryococcus braunii UTEX 2441; experiment: as above; conditions: for DCW g/L / DCW mg/ml.: 4 weeks
# Protocol: as §2
# [7] = test system: Botryococcus braunii (UTEX 572); experiment: High surface to volume heterotrophic cultivation; conditions: UTEX 572, 3% glucose, dark, stepwise scale-up
# Protocol: In order to develop a reproducible, scalable process for the heterotrophic cultivation of B. braunii, a low-volume, slow-mixing heterotrophic procedure was developed. Botryococcus braunii (UTEX 572) cultures were transferred from solid media plates into 6-well plates using B-11 media supplemented with 3% glucose and was grown for one week at room temperature in the dark. The cultures were then transferred into 50 mL of fresh media in a 150 mL T-flask and agitated at 40 rpm on a plate shaker for one week at room temperature in the dark. The cultures were then transferred into 100 mL of fresh media in a 500 mL T-flask and agitated at 30 rpm with a two-inch throw for one week at room temperature in the dark. Finally, the cultures were transferred into 350 mL of fresh media in a Fernbach flask and agitated at 30 rpm with a two-inch throw for one week at room temperature in the dark. In one set of cultures, the cells were transferred into 500 mL of fresh media in a Fernbach flask (instead of 350 mL). Dry cell weights were collected for all cultures and compared. Cultures that were grown in a final volume of 350 mL of media reached a DCW of about 9 grams per liter.
# [8] = test system: Botryococcus braunii N-836; experiment: Complex nitrogen sources on heterotrophic growth with glucose; conditions: N-836, 1% glucose in BG11, dark, 4 weeks
# Protocol: (§3) The following experiment was done with UTEX 572, UTEX 2441, and N-836 in 20 ml of BG11 plus:
# (§4) 1% glucose+2 g/L hydrolyzed casein
# [9] = test system: Botryococcus braunii UTEX 572; experiment: as above; conditions: UTEX 572, 1% glucose in BG11, dark, 4 weeks
# Protocol: as §3, §4
# [10] = test system: Botryococcus braunii UTEX 2441; experiment: as above; conditions: UTEX 2441, 1% glucose in BG11, dark, 4 weeks
# Protocol: as §3, §4
smiles,measurement,setting,value
OC[C@H]1O[C@H](O[C@H]2[C@H](O)[C@@H](O)C(O)O[C@@H]2CO)[C@H](O)[C@@H](O)[C@@H]1O (mixture of isomers) [maltose],growth by visual observation as compared to glucose only control,[1],better growth
O=C[C@H](O)[C@@H](O)[C@H](O)[C@H](O)CO [glucose],"heterotrophic growth score, 0.1%","[2]; N-836, 0.1% carbon source in 1 ml BG11, dark, 4 weeks",++
same,"heterotrophic growth score, 0.5%","[2]; N-836, 0.5% carbon source in 1 ml BG11, dark, 4 weeks",++
same,"heterotrophic growth score, 1%","[2]; N-836, 1% carbon source in 1 ml BG11, dark, 4 weeks",+++
same,"heterotrophic growth on carbon source, in words","[2]; N-836, dark",heterotrophic growth
same,"heterotrophic growth score, 0.1%","[3]; UTEX 572, 0.1% carbon source in 1 ml BG11, dark, 4 weeks",+++
same,"heterotrophic growth score, 0.5%","[3]; UTEX 572, 0.5% carbon source in 1 ml BG11, dark, 4 weeks",++++
same,"heterotrophic growth score, 1%","[3]; UTEX 572, 1% carbon source in 1 ml BG11, dark, 4 weeks",+++++
same,"heterotrophic growth on carbon source, in words","[3]; UTEX 572, dark",grew best
same,"heterotrophic growth score, 0.1%","[4]; UTEX 2441, 0.1% carbon source in 1 ml BG11, dark",++
same,"heterotrophic growth score, 0.5%","[4]; UTEX 2441, 0.5% carbon source in 1 ml BG11, dark",++
same,"heterotrophic growth score, 1%","[4]; UTEX 2441, 1% carbon source in 1 ml BG11, dark",++++
same,DCW g/L,"[5]; UTEX 572, 0.1% glucose, dark",0.2 g/L
same,DCW mg/ml.,"[5]; UTEX 572, 0.1% glucose, dark",0.2 mg/mL
same,DCW g/L,"[5]; UTEX 572, 0.2% glucose, dark",0.2 g/L
same,DCW mg/ml.,"[5]; UTEX 572, 0.2% glucose, dark",0.2 mg/mL
same,DCW g/L,"[5]; UTEX 572, 0.5% glucose, dark",0.4 g/L
same,DCW mg/ml.,"[5]; UTEX 572, 0.5% glucose, dark",0.4 mg/mL
same,growth in the dark at 1% glucose compared with 0.1 and 0.5%,"[5]; UTEX 572, 1% glucose, dark",best growth
same,growth with glucose in the dark,"[5]; UTEX 572, BG11 plus glucose, dark",clearly grew
same,growth with glucose in the light,"[5]; UTEX 572, BG11 plus glucose, light",no growth
same,DCW g/L,"[6]; UTEX 2441, 0.1% glucose, dark",0.3 g/L
same,DCW mg/ml.,"[6]; UTEX 2441, 0.1% glucose, dark",0.3 mg/mL
same,DCW g/L,"[6]; UTEX 2441, 0.2% glucose, dark",0.3 g/L
same,DCW mg/ml.,"[6]; UTEX 2441, 0.2% glucose, dark",0.3 mg/mL
same,DCW g/L,"[6]; UTEX 2441, 0.5% glucose, dark",0.1 g/L
same,DCW mg/ml.,"[6]; UTEX 2441, 0.5% glucose, dark",0.1 mg/mL
same,growth in the dark at 1% glucose compared with 0.1 and 0.5%,"[6]; UTEX 2441, 1% glucose, dark",best growth
same,DCW g/L,"[6]; UTEX 2441, 1.0% glucose, dark",0.7 g/L
same,DCW mg/ml.,"[6]; UTEX 2441, 1.0% glucose, dark",0.7 mg/mL
same,growth with glucose in the dark,"[6]; UTEX 2441, BG11 plus glucose, dark",clearly grew
same,growth with glucose in the light,"[6]; UTEX 2441, BG11 plus glucose, light",no growth
same,DCW,[7]; final volume 350 mL,about 9 grams per liter
same,DCW,[7]; final volume 500 mL,about 3 grams per liter
same,DCW,[8],0.267 g/L
same,DCW mg/3 m1.,[8],0.8 mg/3 m1
same,DCW,[9],0.20 g/L and 0.33 g/L
same,DCW mg/3 m1.,[9],0.6 mg/3 m1 and 1.0 mg/3 m1
same,DCW,[10],0.067 g/L
same,DCW mg/3 m1.,[10],0.2 mg/3 m1
